EC50 data for three compounds are collected here from US10118922B2 (Janssen Pharmaceutica NV, priority 2013, dated 2018).

The target of the test is T1, short form of the GPR120 receptor (Homo sapiens, UniProt Q5NUL3).
T1 construct: host or cells: PathHunter CHO-K1 GPR120S β-Arrestin Cell Line
T1 sequence (Q5NUL3 1-361): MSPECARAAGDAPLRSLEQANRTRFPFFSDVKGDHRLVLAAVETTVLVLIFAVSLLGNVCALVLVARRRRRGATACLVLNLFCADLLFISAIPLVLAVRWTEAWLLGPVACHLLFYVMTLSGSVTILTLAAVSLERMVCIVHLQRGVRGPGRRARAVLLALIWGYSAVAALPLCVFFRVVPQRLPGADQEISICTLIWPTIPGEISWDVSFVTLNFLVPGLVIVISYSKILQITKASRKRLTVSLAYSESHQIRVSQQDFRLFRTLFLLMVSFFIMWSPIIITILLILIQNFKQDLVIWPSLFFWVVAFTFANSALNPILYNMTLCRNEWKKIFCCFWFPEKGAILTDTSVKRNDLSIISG
The experiment in a line: Human GPR120 DiscoveRx PathHunter beta-arrestin assay, Procedure β-arrestin B. The test is classed as cell-based. As to conditions: PathHunter CHO-K1 GPR120S β-Arrestin cells, 5000 cells/well; read-out: hGPR120 β-arrestin B EC50. From the text:
The binding of an agonist (medium/long chain fatty acids or small molecule agonists) to the G-protein-coupled receptor GPR120 activates phospholipase C, leading to release of intracellular Ca^+2 through the generation of inositol 1,4,5-trisphosphate (InsP3 or IP3). GPR120 activation can also trigger intracellular signaling via recruitment of Beta-Arrestin. In the present method, agonist-induced activation of the human GPR120 receptor is monitored through the use of PathHunter CHO-K1 GPR120 Beta-Arrestin Cell Line engineered by DiscoveRx, as detailed below. The cell lines are designed to co-express both the ProLink/Enzyme Donor (PK)-tagged GPCR and the Enzyme […] (EA)-tagged Beta-Arrestin fusion proteins. Upon GPR120 receptor stimulation/activation, the EA-tagged Beta-Arrestin portion is translocated to the tagged receptor, where the two enzyme fragments are brought within close proximity. Under these conditions, these fragments can interact and form an active Beta-gal enzyme complex through Enzyme Fragment Complementation (EFC). This active Beta-gal complex can enzymatically hydrolyse the substrate to produce a detectable light signal; therefore, activation as a function of agonist concentration can be expressed as an EC50 value to determine relative compound activities. This in vitro assay therefore serves to assess compound agonist activity of the GPR120.
In Procedure β-arrestin B the cells used were PathHunter CHO-K1 GPR120S β-Arrestin Cell Line, expressing the short form of the GPR120 receptor (Accession #NM 181745), with 5000 cells/well.
The selected CHO-K1 GPR120 β-Arrestin cells were cultured in Ham's F12 media supplemented with 10% fetal bovine serum (FBS), 1% Glutamine, 1×p/s, 800 μg/mL G418 and 300 μg/mL Hygromycin B (for selection). Cell stocks were maintained and grown in a sub-confluent state using standard cell culture procedures. The day before the experiment, the cells were harvested with non-enzymatic cell dissociation buffer and re-suspended in complete growth media at the desired concentration. A Corning 384-plate was then seeded with the proper number of cells in a volume of 25 μL, per well. The seeded plates were incubated overnight at 37° C.
On the day of the experiment, the Assay Buffer containing (a) HBSS with Ca^++ and Mg^++, (b) 20 mM HEPES, and (c) 0.1% BSA stabilizer (pH 7.4) was prepared. The growth medium was gently removed from the cell plates and 20 μL of Assay Buffer added to each well. The plate was then incubated at 37° C. for 60 min. Test compounds were serially diluted in Assay Buffer to desired concentrations (more particularly to one or more of the following μM concentrations: 25, 12.5, 6.25, 3.125, 1.5625, 0.78125, 0.390625, 0.1953125, 0.09765625, 0.048828125, 0.024414063, 0.012207031). Five μL of compound dilution was then added to each well and the plate incubated at 37° C. for 90 min. The detection reagents were prepared according to the manufacture's instruction. Twelve μL of the detection reagents were added to each well and the plate incubated at room temperature for 60 min.
The plates were read on an EnVision instrument, using Protocol name: Luminescence, Plate type: 384 Costar, Measurement height: 3 mm, Measurement time: 1 s, Aperture: 384 Plate aperture. The % activity relative to the positive control was calculated using the following equation:
The % Activity values were plotted versus the concentration of test compound and fitted to a sigmoidal dose-response curve with a Hill slope=1 (fixed value) using nonlinear regression with GraphPad Prism 5.0 to calculate the EC50 values. The Fitting Equation was: Y=Bottom+(Top-Bottom)/(1+10^((Log EC50−X)*HillSlope)), where X is the log of the concentration and Y is the response.
The term EC50 denotes the concentration needed to bring the measured effect to its halfway point. For the compound `O=C(O)CCc1cc(F)c(OCc2sc(Cl)cc2-c2ccc(Cl)cc2)c(F)c1` [Cpd 2, 3-(4-{[5-Chloro-3-(4-chlorophenyl)thiophen-2-yl]methoxy}-3,5-difluorophenyl)propanoic acid], the 50% effective concentration (EC50) turned out to be 68 nM.
In the case of `Cc1sc(-c2ccccc2)c(COc2ccc(CCC(=O)O)c(C)c2C)c1C(F)(F)F` [Cpd 33, 3-(2,3-Dimethyl-4-{[5-methyl-2-phenyl-4-(trifluoromethyl)thiophen-3-yl]methoxy}phenyl)propanoic acid] it was 322 nM.
As for `OCCCc1cc(F)c(OCc2c(Cl)nsc2-c2ccc(Cl)cc2)c(F)c1` [Cpd 78, 3-(4-{[3-Chloro-5-(4-chlorophenyl)isothiazol-4-yl]methoxy}-3,5-difluorophenyl)propan-1-ol], the figure is 31 nM.
